Patent US11643428B2, “Therapeutic drug for neurodegenerative disease and application thereof” (SHANGHAI PHARMACEUTICALS HOLDING CO., LTD., priority 2018, dated 2023)

Tests used:
[1] = test system: neuroblastoma cells SK-N-SH; experiment: Total Aβ in supernatant of SK-N-SH cells by ELISA; format: cell-based; conditions: 24 hours
Procedure: Culture of neuroblastoma cells SK-N-SH and Aβ detection: SK-N-SH cells were cultured in DMEM, plated to 24 well plates and cultured for 24 hours, then PL201 (0, 30, 100, and 300 μM) was added. After co-incubation for 24 hours, the protein level of total Aβ in supernatant was detected by ELISA.
Culture of neuroblastoma cells SK-N-SH and Aβ detection: SK-N-SH cells were cultured in DMEM, plated to 24 well plates and cultured for 24 hours, then PL202 (0, 30, and 100 μM) was added. After co-incubation for 24 hours, protein level of total Aβ in supernatant was detected by ELISA.
Culture of neuroblastoma cells SK-N-SH and Aβ detection: SK-N-SH cells were cultured in DMEM, plated to 24 well plates and cultured for 24 hours, then PL171 (300 μM) was added. After co-incubation for 24 hours, protein level of total Aβ in supernatant was detected by ELISA.
Culture of neuroblastoma cells SK-N-SH and Aβ detection: SK-N-SH cells were cultured in DMEM, plated to 24 well plates and cultured for 24 hours, then PL172 (300 μM) was added. After co-incubation for 24 hours, protein level of total Aβ in supernatant was detected by ELISA.

[2] = test system: mouse BV-2 cell line; experiment: Expression of inflammatory factors in LPS-treated BV-2 cells by QPCR; format: cell-based; conditions: PL202 30, 100, 300 μM, LPS 300 ng/ml, 24 hours
Procedure: Neuroinflammation in the brain of AD is one of the causes of cognitive decline. Microglial cells are the key cells that mediate neuroinflammation. In this example, the inventors have explored whether PL201 has the effect of inhibiting neuroinflammation by detecting the expressions of inflammatory factors on mouse BV-2 cell line.
BV-2 cells were cultured in DMEM, plated to 24 well plates and cultured for 24 hours, then PL201 (0, 10, 30, and 100 μM) and LPS (300 ng/ml) were added. After co-incubation for 24 hours, Trizol was used to extract RNA and the expressions of related inflammatory factors were detected by QPCR.
Mouse BV-2 cells were cultured in DMEM, plated to 24 well plates and cultured for 24 hours, then PL202 (0, 30, 100, and 300 μM) and LPS (300 ng/ml) were added. After co-incubation for 24 hours, Trizol was used to extract RNA and the expressions of related inflammatory factors were detected by QPCR.

Row | SMILES | Aβ production (total Aβ in supernatant) ([1]; 300 μM) | expression of inflammatory factor IL-1β [2] | expression of inflammatory factor iNOS [2] | Aβ production (total Aβ in supernatant) ([1]; 30, 100 μM)
1 | COc1cc(/C=C/C(=O)NC2OC(C)C(O)C(O)C2O)ccc1O [PL171, (1-amino-β-L-rhamnopyranosyl) ferulamide] | significantly inhibited | – | – | –
2 | COc1cc(/C=C/C(=O)NC2OC(C)C(O)C(O)C2O)ccc1O [PL172, (1-amino-α-L-rhamnopyranosyl) ferulamide] | significantly inhibited | – | – | –
3 | COc1cc(/C=C/C(=O)OC2OC(C)C(O)C(O)C2O)ccc1O [PL202, (β-L-rhamnopyranosyl) ferulic acid ester] | – | significantly inhibited | significantly inhibited | significantly inhibited
